In PubChem BioAssay AID1259407 (Chemical Carcinogenesis Research Information System (CCRIS), 2018):
Calls of active or inactive are those of the source. The rule behind the calls is not given here.

Tested on: CCRIS mutagenicity, Ames/micronucleus/aberration tests
Assay: CCRIS mutagenicity studies

Nc1ccc(N)cc1
mutagenic call (End Point: IN VITRO CHROMOSOMAL ABERRATIONS, Test System: CHL CELLS, Metabolic Activation: NONE): active; positive (structural changes)
mutagenic call (End Point: IN VITRO CHROMOSOMAL ABERRATIONS, Test System: CHL CELLS, Metabolic Activation: RAT, LIVER, S-9, SODIUM PHENOBARBITAL AND 5,6-BENZOFLAVONE): active; positive (structural changes)
mutagenic call (End Point: IN VITRO MICRONUCLEUS, Test System: CHL/IU CELLS, Metabolic Activation: RAT, LIVER, S-9, PHENOBARBITAL AND 5,6-BENZOFLAVONE): active; positive
mutagenic call (End Point: In vitro micronucleus, Test System: Human lymphocytes, Metabolic Activation: Rat, Liver, S-9, Aroclor 1254): active; positive
mutagenic call (Test System: AMES SALMONELLA TYPHIMURIUM, Strain/Indicator: TA98(NR), Metabolic Activation: NONE, Method: PREINCUBATION): inactive; negative
mutagenic call (Test System: AMES SALMONELLA TYPHIMURIUM, Strain/Indicator: TA98(NR), Metabolic Activation: RAT, LIVER, S-9, AROCLOR 1254, Method: PREINCUBATION): active; positive
mutagenic call (Test System: AMES SALMONELLA TYPHIMURIUM, Strain/Indicator: TA98, Metabolic Activation: HAMSTER, LIVER, S-9, AROCLOR 1254 (30%), Method: PREINCUBATION): active; positive
mutagenic call (Test System: AMES SALMONELLA TYPHIMURIUM, Strain/Indicator: TA98, Metabolic Activation: NONE): inactive; negative
mutagenic call (Test System: AMES SALMONELLA TYPHIMURIUM, Strain/Indicator: TA98, Metabolic Activation: NONE, Method: PREINCUBATION): inactive; negative
mutagenic call (Test System: AMES SALMONELLA TYPHIMURIUM, Strain/Indicator: TA98, Metabolic Activation: NONE, Method: STANDARD PLATE): inactive; negative
mutagenic call (Test System: AMES SALMONELLA TYPHIMURIUM, Strain/Indicator: TA98, Metabolic Activation: PEA APICAL BUD S-9, Method: PREINCUBATION): inactive; negative
mutagenic call (Test System: AMES SALMONELLA TYPHIMURIUM, Strain/Indicator: TA98, Metabolic Activation: PEA APICAL BUD S-9, Method: STANDARD PLATE): inactive; negative
mutagenic call (Test System: AMES SALMONELLA TYPHIMURIUM, Strain/Indicator: TA98, Metabolic Activation: PLANT (PERSEA AMERICANA) S-117, Method: STANDARD PLATE): inactive; negative
mutagenic call (Test System: AMES SALMONELLA TYPHIMURIUM, Strain/Indicator: TA98, Metabolic Activation: PLANT (ZEA MAYS) S-9, Method: STANDARD PLATE): inactive; negative
mutagenic call (Test System: AMES SALMONELLA TYPHIMURIUM, Strain/Indicator: TA98, Metabolic Activation: RAT LIVER S-9, PHENOBARBITAL AND BETA-NAPHTHOFLAVONE, Method: PREINCUBATION): active; positive
mutagenic call (Test System: AMES SALMONELLA TYPHIMURIUM, Strain/Indicator: TA98, Metabolic Activation: RAT, LIVER, S-9, AROCLOR 1254): active; positive
mutagenic call (Test System: AMES SALMONELLA TYPHIMURIUM, Strain/Indicator: TA98, Metabolic Activation: RAT, LIVER, S-9, AROCLOR 1254 (30%), Method: PREINCUBATION): active; positive
mutagenic call (Test System: AMES SALMONELLA TYPHIMURIUM, Strain/Indicator: TA100(NR), Metabolic Activation: NONE, Method: PREINCUBATION): active; positive
mutagenic call (Test System: AMES SALMONELLA TYPHIMURIUM, Strain/Indicator: TA100(NR), Metabolic Activation: RAT, LIVER, S-9, AROCLOR 1254, Method: PREINCUBATION): inactive; negative
mutagenic call (Test System: AMES SALMONELLA TYPHIMURIUM, Strain/Indicator: TA100, Metabolic Activation: HAMSTER, LIVER, S-9, AROCLOR 1254 (30%), Method: PREINCUBATION): inactive; negative
mutagenic call (Test System: AMES SALMONELLA TYPHIMURIUM, Strain/Indicator: TA100, Metabolic Activation: NONE, Method: PREINCUBATION): inactive; negative
mutagenic call (Test System: AMES SALMONELLA TYPHIMURIUM, Strain/Indicator: TA100, Metabolic Activation: NONE, Method: STANDARD PLATE): inactive; negative
mutagenic call (Test System: AMES SALMONELLA TYPHIMURIUM, Strain/Indicator: TA100, Metabolic Activation: PEA APICAL BUD S-9, Method: PREINCUBATION): inactive; negative
mutagenic call (Test System: AMES SALMONELLA TYPHIMURIUM, Strain/Indicator: TA100, Metabolic Activation: PEA APICAL BUD S-9, Method: STANDARD PLATE): inactive; negative
mutagenic call (Test System: AMES SALMONELLA TYPHIMURIUM, Strain/Indicator: TA100, Metabolic Activation: PLANT (PERSEA AMERICANA) S-117, Method: STANDARD PLATE): inactive; negative
mutagenic call (Test System: AMES SALMONELLA TYPHIMURIUM, Strain/Indicator: TA100, Metabolic Activation: PLANT (ZEA MAYS) S-9, Method: STANDARD PLATE): inactive; negative
mutagenic call (Test System: AMES SALMONELLA TYPHIMURIUM, Strain/Indicator: TA100, Metabolic Activation: RAT LIVER S-9, PHENOBARBITAL AND BETA-NAPHTHOFLAVONE, Method: PREINCUBATION): inactive; negative
mutagenic call (Test System: AMES SALMONELLA TYPHIMURIUM, Strain/Indicator: TA100, Metabolic Activation: RAT, LIVER, S-9, AROCLOR 1254 (30%), Method: PREINCUBATION): inactive; negative
mutagenic call (Test System: AMES SALMONELLA TYPHIMURIUM, Strain/Indicator: TA100, Metabolic Activation: RAT, LIVER, S-9, AROCLOR 1254, Method: PREINCUBATION): inactive; negative
mutagenic call (Test System: AMES SALMONELLA TYPHIMURIUM, Strain/Indicator: TA100, Metabolic Activation: RAT, LIVER, S-9, AROCLOR 1254, Method: STANDARD PLATE): inactive; negative
mutagenic call (Test System: AMES SALMONELLA TYPHIMURIUM, Strain/Indicator: TA102, Metabolic Activation: NONE, Method: STANDARD PLATE): inactive; negative
mutagenic call (Test System: AMES SALMONELLA TYPHIMURIUM, Strain/Indicator: TA1535, Metabolic Activation: NONE, Method: PREINCUBATION): inactive; negative
mutagenic call (Test System: AMES SALMONELLA TYPHIMURIUM, Strain/Indicator: TA1535, Metabolic Activation: RAT LIVER S-9, PHENOBARBITAL AND BETA-NAPHTHOFLAVONE, Method: PREINCUBATION): inactive; negative
mutagenic call (Test System: AMES SALMONELLA TYPHIMURIUM, Strain/Indicator: TA1537, Metabolic Activation: NONE, Method: PREINCUBATION): inactive; negative
mutagenic call (Test System: AMES SALMONELLA TYPHIMURIUM, Strain/Indicator: TA1537, Metabolic Activation: RAT LIVER S-9, PHENOBARBITAL AND BETA-NAPHTHOFLAVONE, Method: PREINCUBATION): inactive; negative
mutagenic call (Test System: AMES SALMONELLA TYPHIMURIUM, Strain/Indicator: TA1538, Metabolic Activation: RAT, LIVER, S-9, PHENOBARBITAL, Method: STANDARD PLATE): active; positive
mutagenic call (Test System: AMES SALMONELLA TYPHIMURIUM, Strain/Indicator: TA2638, Metabolic Activation: NONE, Method: STANDARD PLATE): inactive; negative
mutagenic call (Test System: AMES SALMONELLA TYPHIMURIUM, Strain/Indicator: YG1024, Metabolic Activation: PLANT (PERSEA AMERICANA) S-117, Method: STANDARD PLATE): inactive; negative
mutagenic call (Test System: AMES SALMONELLA TYPHIMURIUM, Strain/Indicator: YG1024, Metabolic Activation: PLANT (ZEA MAYS) S-9, Method: STANDARD PLATE): inactive; negative
mutagenic call (Test System: AMES SALMONELLA TYPHIMURIUM, Strain/Indicator: YG1029, Metabolic Activation: PLANT (PERSEA AMERICANA) S-117, Method: STANDARD PLATE): inactive; negative
mutagenic call (Test System: AMES SALMONELLA TYPHIMURIUM, Strain/Indicator: YG1029, Metabolic Activation: PLANT (ZEA MAYS) S-9, Method: STANDARD PLATE): inactive; negative
mutagenic call (Test System: Ames Salmonella typhimurium, Strain/Indicator: TA98, Metabolic Activation: None, Method: Standard plate): inactive; negative
mutagenic call (Test System: Ames Salmonella typhimurium, Strain/Indicator: TA98, Metabolic Activation: Rat, Liver, S-9, Aroclor 1254 (10%), Method: Preincubation): active; positive
mutagenic call (Test System: Ames Salmonella typhimurium, Strain/Indicator: TA98, Metabolic Activation: Rat, Liver, S-9, Aroclor 1254 (10%), Method: Standard plate): active; positive
mutagenic call (Test System: Ames Salmonella typhimurium, Strain/Indicator: TA100, Metabolic Activation: None, Method: Preincubation): inactive; negative
mutagenic call (Test System: Ames Salmonella typhimurium, Strain/Indicator: TA100, Metabolic Activation: None, Method: Standard plate): inactive; negative
mutagenic call (Test System: Ames Salmonella typhimurium, Strain/Indicator: TA100, Metabolic Activation: Rat, Liver, S-9, Aroclor 1254 (10%), Method: Preincubation): inactive; negative
mutagenic call (Test System: Ames Salmonella typhimurium, Strain/Indicator: TA100, Metabolic Activation: Rat, Liver, S-9, Aroclor 1254 (10%), Method: Standard plate): inactive; negative
mutagenic call (Test System: Ames Salmonella typhimurium, Strain/Indicator: TA102, Metabolic Activation: None, Method: Preincubation): inactive; negative
mutagenic call (Test System: Ames Salmonella typhimurium, Strain/Indicator: TA102, Metabolic Activation: None, Method: Standard plate): inactive; negative
mutagenic call (Test System: Ames Salmonella typhimurium, Strain/Indicator: TA102, Metabolic Activation: Rat, Liver, S9, Aroclor 1254, Method: Preincubation): inactive; negative
mutagenic call (Test System: Ames Salmonella typhimurium, Strain/Indicator: TA102, Metabolic Activation: Rat, Liver, S-9, Aroclor 1254 (10%), Method: Preincubation): inactive; negative
mutagenic call (Test System: Ames Salmonella typhimurium, Strain/Indicator: TA102, Metabolic Activation: Rat, Liver, S-9, Aroclor 1254 (10%), Method: Standard plate): inactive; negative
mutagenic call (Test System: Ames Salmonella typhimurium, Strain/Indicator: TA104, Metabolic Activation: None, Method: Preincubation): inactive; negative
mutagenic call (Test System: Ames Salmonella typhimurium, Strain/Indicator: TA104, Metabolic Activation: Rat, Liver, S9, Aroclor 1254, Method: Preincubation): inactive; negative
mutagenic call (Test System: Ames Salmonella typhimurium, Strain/Indicator: TA1535, Metabolic Activation: None, Method: Preincubation): inactive; negative
mutagenic call (Test System: Ames Salmonella typhimurium, Strain/Indicator: TA1535, Metabolic Activation: None, Method: Standard plate): inactive; negative
mutagenic call (Test System: Ames Salmonella typhimurium, Strain/Indicator: TA1535, Metabolic Activation: Rat, Liver, S-9, Aroclor 1254 (10%), Method: Preincubation): inactive; negative
mutagenic call (Test System: Ames Salmonella typhimurium, Strain/Indicator: TA1535, Metabolic Activation: Rat, Liver, S-9, Aroclor 1254 (10%), Method: Standard plate): inactive; negative
mutagenic call (Test System: Ames Salmonella typhimurium, Strain/Indicator: TA1537, Metabolic Activation: None, Method: Preincubation): inactive; negative
mutagenic call (Test System: Ames Salmonella typhimurium, Strain/Indicator: TA 1537, Metabolic Activation: None, Method: Standard plate): inactive; negative
mutagenic call (Test System: Ames Salmonella typhimurium, Strain/Indicator: TA1537, Metabolic Activation: Rat, Liver, S-9, Aroclor 1254 (10%), Method: Preincubation): inactive; negative
mutagenic call (Test System: Ames Salmonella typhimurium, Strain/Indicator: TA1537, Metabolic Activation: Rat, Liver, S-9, Aroclor 1254 (10%), Method: Standard plate): inactive; negative
mutagenic call (Test System: CHINESE HAMSTER OVARY, Strain/Indicator: CHO-K1-BH4 (HGPRT)/6-THIOGUANINE, Metabolic Activation: NONE): inactive; negative
mutagenic call (Test System: CHINESE HAMSTER OVARY, Strain/Indicator: CHO-K1-BH4 (HGPRT)/6-THIOGUANINE, Metabolic Activation: S-9): inactive; negative
mutagenic call (Test System: E. COLI, Strain/Indicator: WP2 (PKM101), Metabolic Activation: NONE, Method: STANDARD PLATE): inactive; negative
mutagenic call (Test System: E. COLI, Strain/Indicator: WP2 UVRA (PKM101), Metabolic Activation: NONE, Method: STANDARD PLATE): inactive; negative
mutagenic call (Test System: E.COLI, Strain/Indicator: WP2UVRA, Metabolic Activation: RAT LIVER S-9, PHENOBARBITAL AND BETA-NAPHTHOFLAVONE, Method: PREINCUBATION): inactive; negative
mutagenic call (Test System: MOUSE LYMPHOMA, Strain/Indicator: L5178Y (TK+/TK-), Metabolic Activation: NONE, Method: SUSPENSION/PLATE): active; positive
mutagenic call (Test System: MOUSE LYMPHOMA, Strain/Indicator: L5178Y (TK+/TK-), Metabolic Activation: RAT, LIVER, S-9, AROCLOR 1254, Method: SUSPENSION/PLATE): active; positive
mutagenic call (Test System: Mouse lymphoma, Strain/Indicator: L5178Y (TK+/TK-), Metabolic Activation: None, Method: Suspension/plate): inactive; negative
mutagenic call (Test System: Mouse lymphoma, Strain/Indicator: L5178Y (TK+/TK-), Metabolic Activation: Rat, Liver, S-9, Aroclor 1254, Method: Suspension/plate): inactive; negative
